One may read the EC50 as the concentration that produces a half-maximal response.

For this test, the system named is recombinant NL4-3 virus (Renilla luciferase in nef, Gag P373S). As to the kind of experiment: HIV Cell Culture Assay (luciferase reporter virus in MT-2 cells). The class given is cell-based. The following applies: NL43, read-out: EC50 Group. The protocol: MT-2 cells and 293T cells were obtained from the NIH AIDS Research and Reference Reagent Program. MT-2 cells were propagated in RPMI 1640 media supplemented with 10% heat inactivated fetal bovine serum, […]. The 293T cells were propagated in DMEM media supplemented with 10% heat inactivated fetal bovine serum (FBS), 100 units/ml penicillin G and 100 μg/ml streptomycin. The proviral DNA clone of NL4-3 was obtained from the NIH AIDS Research and Reference Reagent Program. A recombinant NL4-3 virus, in which a section of the nef gene from NL4-3 was replaced with the Renilla luciferase gene, was used as a reference virus. In addition, residue Gag P373 was converted to P373S. Briefly, the recombinant virus was prepared by transfection of the altered proviral clone of NL4-3. Transfections were performed in 293T cells using LipofectAMINE PLUS from Invitrogen (Carlsbad, Calif.), according to manufacturer's instruction. The virus was titered in MT-2 cells using luciferase enzyme activity as a marker. Luciferase was quantitated using the Dual Luciferase kit from Promega (Madison, Wis.), with modifications to the manufacturer's protocol. The diluted Passive Lysis solution was pre-mixed with the re-suspended Luciferase Assay Reagent and the re-suspended Stop & Glo Substrate (2:1:1 ratio). Fifty (50) μL of the mixture was added to each aspirated well on assay plates and luciferase activity was measured immediately on a Wallac TriLux (Perkin-Elmer). Antiviral activities of inhibitors toward the recombinant virus were quantified by measuring luciferase activity in cells infected for 4-5 days with NLRluc recombinants in the presence serial dilutions of the inhibitor. Table 1 is the key for the data in Table 2.
As for `CC(C)[C@@H]1CC[C@]2(C(=O)NCCC(=O)O)CC[C@]3(C)[C@H](CC[C@@H]4[C@@]5(C)CC[C@H](c6ccc(C(=O)O)cc6)C(C)(C)[C@@H]5CC[C@]43C)[C@@H]12` [Example 124, 4-((1S,3aS,5aR,5bR,7aS,9S,11aS,11bR,13aR,13bR)-3a-(2-carboxyethylcarbamoyl)-1-isopropyl-5a,5b,8,8,11a-pentamethylicosahydro-1H-cyclopenta[a]chrysen-9-yl)benzoic acid], the EC50 was under 100 nM.

As for `C=C(C)[C@@H]1CC[C@]2(C(=O)N3CCC(O)CC3)CC[C@]3(C)[C@H](CC[C@@H]4[C@@]5(C)CC=C(c6ccc(C(=O)O)cc6)C(C)(C)[C@@H]5CC[C@]43C)[C@@H]12` [Example 22, 4-((1R,3aS,5aR,5bR,7aR,11aS,11bR,13aR,13bR)-3a-(4-hydroxypiperidine-1-carbonyl)-5a,5b,8,8,11a-pentamethyl-1-(prop-1-en-2-yl)-2,3,3a,4,5,5a,5b,6,7,7a,8,11,11a,11b,12,13,13a,13b-octadecahydro-1H-cyclopenta[a]chrysen-9-yl)benzoic acid], the EC50 was under 100 nM. With `C=C(C)[C@@H]1CC[C@]2(C(=O)NCc3nc4ccccc4s3)CC[C@]3(C)[C@H](CC[C@@H]4[C@@]5(C)CC=C(c6ccc(C(=O)O)cc6)C(C)(C)[C@@H]5CC[C@]43C)[C@@H]12` [Example 45, 4-((1R,3aS,5aR,5bR,7aR,11aS,11bR,13aR,13bR)-3a-(benzo[d]thiazol-2-ylmethylcarbamoyl)-5a,5b,8,8,11a-pentamethyl-1-(prop-1-en-2-yl)-2,3,3a,4,5,5a,5b,6,7,7a,8,11,11a,11b,12,13,13a,13b-octadecahydro-1H-cyclopenta[a]chrysen-9-yl)benzoic acid], the EC50 is under 100 nM. The result for `C=C(C)[C@@H]1CC[C@]2(C(=O)N[C@H](C(=O)O)C(C)C)CC[C@]3(C)[C@H](CC[C@@H]4[C@@]5(C)CC=C(c6ccc(C(=O)O)cc6)C(C)(C)[C@@H]5CC[C@]43C)[C@@H]12` [Example 61, 4-((1R,3aS,5aR,5bR,7aR,11aS,11bR,13aR,13bR)-3a-((S)-1-carboxy-2-methylpropylcarbamoyl)-5a,5b,8,8,11a-pentamethyl-1-(prop-1-en-2-yl)-2,3,3a,4,5,5a,5b,6,7,7a,8,11,11a,11b,12,13,13a,13b-octadecahydro-1H-cyclopenta[a]chrysen-9-yl)benzoic acid] reads under 100 nM; that for `C=C(C)[C@@H]1CC[C@]2(C(=O)NCCN(CC(=O)O)Cc3ccccc3)CC[C@]3(C)[C@H](CC[C@@H]4[C@@]5(C)CC=C(c6ccc(C(=O)O)cc6)C(C)(C)[C@@H]5CC[C@]43C)[C@@H]12` [Example 107, 4-((1R,3aS,5aR,5bR,7aR,11aS,11bR,13aR,13bR)-3a-(2-(benzyl(carboxymethyl)amino)ethylcarbamoyl)-5a,5b,8,8,11a-pentamethyl-1-(prop-1-en-2-yl)-2,3,3a,4,5,5a,5b,6,7,7a,8,11,11a,11b,12,13,13a,13b-octadecahydro-1H-cyclopenta[a]chrysen-9-yl)benzoic acid], under 100 nM; that for `C=C(C)[C@@H]1CC[C@]2(C(=O)NCCCN(CCC(=O)O)CCC(=O)O)CC[C@]3(C)[C@H](CC[C@@H]4[C@@]5(C)CC=C(c6ccc(C(=O)O)cc6)C(C)(C)[C@@H]5CC[C@]43C)[C@@H]12` [Example 100, 3,3′-(3-((1R,3aS,5aR,5bR,7aR,11aS,11bR,13aR,13bR)-9-(4-carboxyphenyl)-5a,5b,8,8,11a-pentamethyl-1-(prop-1-en-2-yl)-2,3,3a,4,5,5a,5b,6,7,7a,8,11,11a,11b,12,13,13a,13b-octadecahydro-1H-cyclopenta[a]chrysene-3a-carboxamido)propylazanediyl)dipropanoic acid], over 100 nM. For the compound `C=C(C)[C@@H]1CC[C@]2(C(=O)NCCCN3CCCC3=O)CC[C@]3(C)[C@H](CC[C@@H]4[C@@]5(C)CC=C(c6ccc(C(=O)O)cc6)C(C)(C)[C@@H]5CC[C@]43C)[C@@H]12` [Example 87, 4-((1R,3aS,5aR,5bR,7aR,11aS,11bR,13aR,13bR)-5a,5b,8,8,11a-pentamethyl-3a-(3-(2-oxopyrrolidin-1-yl)propylcarbamoyl)-1-(prop-1-en-2-yl)-2,3,3a,4,5,5a,5b,6,7,7a,8,11,11a,11b,12,13,13a,13b-octadecahydro-1H-cyclopenta[a]chrysen-9-yl)benzoic acid], the EC50 was under 100 nM. As to `C=C(C)[C@@H]1CC[C@]2(C(=O)NCCCN3CCOCC3)CC[C@]3(C)[C@H](CC[C@@H]4[C@@]5(C)CC=C(c6ccc(C(=O)O)cc6)C(C)(C)[C@@H]5CC[C@]43C)[C@@H]12` [Example 32, 4-((1R,3aS,5aR,5bR,7aR,11aS,11bR,13aR,13bR)-5a,5b,8,8,11a-pentamethyl-3a-(3-morpholinopropylcarbamoyl)-1-(prop-1-en-2-yl)-2,3,3a,4,5,5a,5b,6,7,7a,8,11,11a,11b,12,13,13a,13b-octadecahydro-1H-cyclopenta[a]chrysen-9-yl)benzoic acid], the EC50 was under 100 nM.

In the case of `C=C(C)[C@@H]1CC[C@]2(C(=O)NCCC(=O)N3CCCC3C(=O)O)CC[C@]3(C)[C@H](CC[C@@H]4[C@@]5(C)CC=C(c6ccc(C(=O)O)cc6)C(C)(C)[C@@H]5CC[C@]43C)[C@@H]12` (stereo partly drawn) [Example 127, 1-(3-((1R,3aS,5aR,5bR,7aR,11aS,11bR,13aR,13bR)-9-(4-carboxyphenyl)-5a,5b,8,8,11a-pentamethyl-1-(prop-1-en-2-yl)-2,3,3a,4,5,5a,5b,6,7,7a,8,11,11a,11b,12,13,13a,13b-octadecahydro-1H-cyclopenta[a]chrysene-3a-carboxamido)propanoyl)pyrrolidine-2-carboxylic acid], the EC50 was under 100 nM. For the compound `C=C(C)[C@@H]1CC[C@]2(C(=O)NCCCN3CCS(=O)(=O)CC3)CC[C@]3(C)[C@H](CC[C@@H]4[C@@]5(C)CC=C(c6ccc(C(=O)O)cc6)C(C)(C)[C@@H]5CC[C@]43C)[C@@H]12` [Example 85, 4-((1R,3aS,5aR,5bR,7aR,11aS,11bR,13aR,13bR)-3a-((3-(1,1-dioxido-4-thiomorpholinyl)propyl)carbamoyl)-1-isopropenyl-5a,5b,8,8,11a-pentamethyl-2,3,3a,4,5,5a,5b,6,7,7a,8,11,11a,11b,12,13,13a,13b-octadecahydro-1H-cyclopenta[a]chrysen-9-yl)benzoic acid], the EC50 is under 100 nM. Take `C=C(C)[C@@H]1CC[C@]2(C(=O)N[C@@H](C)CN(C)C)CC[C@]3(C)[C@H](CC[C@@H]4[C@@]5(C)CC=C(c6ccc(C(=O)O)cc6)C(C)(C)[C@@H]5CC[C@]43C)[C@@H]12` [Example 68, 4-((1R,3aS,5aR,5bR,7aR,11aS,11bR,13aR,13bR)-3a-((S)-1-(dimethylamino)propan-2-ylcarbamoyl)-5a,5b,8,8,11a-pentamethyl-1-(prop-1-en-2-yl)-2,3,3a,4,5,5a,5b,6,7,7a,8,11,11a,11b,12,13,13a,13b-octadecahydro-1H-cyclopenta[a]chrysen-9-yl)benzoic acid]: the EC50 was under 100 nM.
